{"source": "paper PMC7179198", "about": "“Chiral Pyridine-3,5-bis- (L-phenylalaninyl-L-leucinyl) Schiff Base Peptides as Potential Anticancer Agents: Design, Synthesis, and Molecular Docking Studies Targeting Lactate Dehydrogenase-A” (Molecules, 2020)", "key": {"MCF-7 xenografts": {"tested_on": "MCF-7 xenografts", "test": "In vivo human breast cancer xenograft", "parameters": "species or system nude mice", "settings": "MCF-7 xenograft, eight days of treatment", "description": "In this section, we developed a breast cancer animal xenograft model for the evaluation of thein vivo anticancer potential of our newly prepared compounds. […] After wards, the noticeable effects were more or less constant up to 14 days of treatment. […] Our results are in good agreement with those previously published on the in vivo anticancer potential of Schiff bases owing to apoptosis induction.\nThe breast cancer xenograft model protocol was approved by the Institutional Animal Use and Care Committee of the University of Alabama at Birmingham (50-01-05-08B). Female athymic pathogen-free nude mice (nu/nu, 4–6 weeks) were used. Firstly, MCF-7 xenografts were initiated by implanting pellets slowly releasing estrogen for two months (1.7mg 17β-estradiol/pellet) subcutaneously in the female nude mice. After 24 h, confluent MCF-7 cells were harvested, washed two times with serum-free medium, re-suspended, and injected subcutaneously (s.c.) (5 × 10^6 cells, total volume 0.2 mL) into the left inguinal area of the mice. Caliper measurement was used to measure tumor growth in two perpendicular diameters of the implant after 48 h, and its volume was determined. Mice grafted with MCF-7 were divided into different groups (7–10 mice/group). Untreated mice received the solvent only. Treated groups received different prepared derivatives as previously described."}, "[1]": {"molecular_target": "T1, recombinant human LDHA protein (Homo sapiens, UniProt P00338)", "T1 construct": "purchased Abcam ab93699", "test": "LDHA inhibition assay (colorimetric NADH kit)", "type": "biochemical", "protocol": "The newly synthesized compounds 4–6 were evaluated for their ability to inhibit LDHA in comparison with galloflavin as a known isoform nonselective LDHA inhibitor [44, 45]. The choice of galloflavin as a reference was based on the fact that it is potent anticancer agent and commercially available.\nLactate dehydrogenase assay kit (Abcam, ab102526) and recombinant human LDHA protein (Abcam, ab93699) were used to assess the inhibitory effect of the tested compounds. First, we generated an NADH standard curve for colorimetric detection by measuring the OD (450 nm) at different molar amounts of NADH. The linear regression equation of the curve was derivatized in Graphpad Prism. Tested compounds were dissolved in DMSO and their inhibitory activity was assessed at 140 and 300 μM strength. Galloflavin (Sigma, SML0776) at the same molar concentration was used as a known LDH inhibitor. The master reaction mix composed of LDH assay buffer and 10 ng human LDHA […] per reaction was prepared. Tested compounds were added and the final reaction volume was adjusted to 50 μL. Absorbance at 450 nm was taken after 2–3 min (T-initial) and continued every minute for 118 min (T-final). The change in measurement over time (delta A450) was calculated as T-final minus T-initial. The amount of NADH generated by the assay between T-initial and T-final was deduced by comparing the A450 of each sample to the standard NADH standard curve. LDHA activity was calculated in milliunits per mL as the amount of NADH generated by the assay / (reaction time in minutes (118) x reaction volume in mL ([…])."}}}
{"smiles": "CC(=NNC(=O)C(CC(C)C)NC(=O)C(Cc1ccccc1)NC(=O)c1cncc(C(=O)NC(Cc2ccccc2)C(=O)NC(CC(C)C)C(=O)NN=C(C)c2ccc([N+](=O)[O-])cc2)c1)c1ccc([N+](=O)[O-])cc1", "note": "(stereo not drawn) [5e, N^3,N^5-Bis{1-[(4-methyl-1-(2-(1-(4-nitrophenyl)ethylidene)hydrazinyl)-1-oxopentan-2-yl)-amino]-1-oxo-3-phenylpropan-2-yl}pyridine-3,5-dicarboxamide]", "values": [{"measurement": "decrease in tumor growth", "setting": "MCF-7 xenografts", "result": 74.2, "unit": "%"}, {"measurement": "IC50", "setting": "[1]; recombinant human LDHA", "result": "141.6 ± 0.98", "unit": "µM"}, {"measurement": "fold increase in LDHA inhibitory activity compared with galloflavin", "setting": "[1]; vs galloflavin", "result": "~1.14", "unit": "fold"}]}
